Values quoted from earlier work, collected in patent publication US9446050B2, “Method for treatment of mesothelioma” (THE BRIGHAM AND WOMEN'S HOSPITAL, INC., priority 2011, dated 2016).

Tests used:
mesothelioma [1] = settings: large-dose single treatment in combination with leucovin
mesothelioma [2] = settings: single agent

## CN(Cc1cnc2nc(N)nc(N)c2n1)c1ccc(C(=O)N[C@@H](CCC(=O)O)C(=O)O)cc1 [methotrexate]
Mesothelioma [1]
  efficacy rate: 37%

## Nc1nc2[nH]cc(CCc3ccc(C(=O)N[C@@H](CCC(=O)O)C(=O)O)cc3)c2c(=O)[nH]1 [pemetrexed]
Mesothelioma [2]
  median overall survival: 10.7 months
  response rate: 14.1%
